Assay results published in patent US11925679B2, “H3.3 CTL peptides and uses thereof” (The Regents of the University of California, priority 2015, dated 2024).

What was measured:
[1] = test system: HLA-A*0201+ donor-derived PBMCs; test: In vitro stimulation of donor PBMCs with peptide, tetramer staining of CD8+ T-cells
Method: Peripheral blood mononuclear cells from an HLA-A ? + donor were stimulated in vitro with the H3.3.K27M peptide and evaluated for their reactivity against: (1A) HLA-A ? /H3.3.K27M-specific tetramer and anti-CD8 mAb, and (1B) T2 cells pulsed with the mutant or non-mutated H3.3 peptide by IFN-γ ELISA.
Induction and isolation of H3.3K27M-specific CTL clones. To generate dendritic cells, the plastic adherent cells from PBMCs were cultured in AIM-V medium (Invitrogen) supplemented with 1,000 units/mL recombinant human granulocyte macrophage colony-stimulating factor and 500 units/mL recombinant human IL-4 (rhIL-4; Cell Sciences) at 37° C. in a humidified CO2 (5%) incubator. Six days later, the immature dendritic cells were stimulated with recombinant human tumor necrosis factor-α, IL-6, and IL-1 (10 ng/mL each). Mature dendritic cells were then harvested on day 8, resuspended in AIM-V medium at 1×10^6 cells per mL with peptide (10 μg/mL), and incubated for 2 hours at 37° C. Populations of autologous CD8^+ T-cells were enriched from PBMCs using magnetic microbeads (Miltenyi Biotech). CD8^+ T-cells (2×10^6 per well) were co-cultured with 2×10^5 per well peptide-pulsed dendritic cells in 2 mL/well of AIM-V medium supplemented with 5% human AB serum, 10 units/mL rhIL-2 (R&D Systems, Minneapolis, Minn.), and 10 units/mL rhIL-7 (Cell Sciences) in each well of 24-well tissue culture plates. On day 15, lymphocytes were re-stimulated with autologous dendritic cells pulsed with peptide in AIM-V medium supplemented with 5% human AB serum, rhIL-2, and rhIL-7 (10 units/mL each).
HLA-A*0201-peptide tetramer staining. […] (SEQ ID NO:2) tetramer (H3.3K27M-tetramer) was produced by the National Institute of Allergy and Infectious Disease tetramer facility within the Emory University Vaccine Center (Atlanta, Ga.) using the peptide synthesized by A&A labs (San Diego; CA). […] Cells were then washed with FACS Buffer (PBS containing 1% FBS). For some experiments, T-cells were stained with tetramer, followed by anti-human CD8 APC (Biolegend, 344722) and anti-human CD69 FITC (eBioscience, 11-0699-42).

[2] = test system: purified HLA-A2 class I molecules; test: Competitive binding inhibition assay with purified HLA-A2 and radiolabeled probe peptide; design: species or system human; settings: cell-free binding assay, FIG. 8A

| Sequence | CD8+tetramer+ population ([1]; FIG. 2A) | tetramer high subpopulation ([1]; FIG. 2A) | CD8+ cells bound to the HLA-A*0201-H3.3.K27M (26-35) tetramer ([1]; several weekly stimulation cycles in vitro) | affinity to HLA-A*0201 relative to H3.3.K27M (26-35) [2] |
| --- | --- | --- | --- | --- |
| RMSAPSTGGV [H3.3.K27M (26-35)] | 64.1 % of total lymphocyte-gated cells | 2.4 % of total lymphocyte-gated cells | over 60% |  |
| XMSAPSTGGV [Cit H3.3] |  |  |  | partially retains its affinity |
